The molecules below were run on Tetrahymena pyriformis (assay: 48 h IGC50 (-log10 mol/L); higher = more toxic).

First: O=C1C=Cc2ccccc2C1=O
Second: Cc1cccc2ccccc12
The “48 h IGC50 (-log10 mol/L)” value of the first is higher: 6.2 for the first, 3.74 for the second.

First: COC(=O)c1ccc(C(=O)OC)c([N+](=O)[O-])c1
Second: O=Cc1cccc([N+](=O)[O-])c1O
The “48 h IGC50 (-log10 mol/L)” value of the first is lower: 3.43 for the first, 3.87 for the second.

Compared with `O=C(c1ccccc1)C(F)(F)F`, `O=C(NO)c1ccccc1` is higher in “48 h IGC50 (-log10 mol/L)” value: 2.99 for the first, 3.38 for the second.

Compared with `C#CCOC(=O)CC`, `CCC(=O)OC` is lower in “48 h IGC50 (-log10 mol/L)” value: 2.35 for the first, 1.39 for the second.

`Clc1cccc(Br)c1Cl` and `Clc1cccc(Cl)c1Br` are within 0.2 log units of each other in “48 h IGC50 (-log10 mol/L)” value: 4.3 for the first, 4.34 for the second.

Compared with `CCCCOC(=O)c1ccccc1`, `O=C(CBr)Oc1ccccc1` is higher in “48 h IGC50 (-log10 mol/L)” value: 3.92 for the first, 5.08 for the second.

First: CC/C=C/C=C/C=O
Second: CCCCCCC/C=C/C=O
The “48 h IGC50 (-log10 mol/L)” value of the first is lower: 3.86 for the first, 4.85 for the second.

Compared with `O=C(O)c1cccc(O)c1`, `O=C(O)c1ccc(Cl)c(Cl)c1` is higher in “48 h IGC50 (-log10 mol/L)” value: 2.19 for the first, 3.31 for the second.

Compared with `C/C=C/c1ccc(O)c(OC)c1`, `COc1cc(CCO)ccc1O` is lower in “48 h IGC50 (-log10 mol/L)” value: 3.75 for the first, 2.82 for the second.

Compared with `CCCCS(=O)(=O)CCCC`, `CCCCCCC(C)O` (centres undefined) is higher in “48 h IGC50 (-log10 mol/L)” value: 2.74 for the first, 3 for the second.

`O=C(O)CCCCCC(=O)O` and `O=C(O)CCCCCCC(=O)O` are within 0.2 log units of each other in “48 h IGC50 (-log10 mol/L)” value: 2.42 for the first, 2.49 for the second.

Compared with `N#Cc1ccncc1`, `N#CCc1ccccc1` is higher in “48 h IGC50 (-log10 mol/L)” value: 2.18 for the first, 2.64 for the second.

Going from `O=C(CCl)CCl` to `ClCC=CCCl`, the “48 h IGC50 (-log10 mol/L)” value falls from 5.05 to 4.02.

Compared with `Nc1ccccc1Cl`, `Cc1ccc(N)c(Cl)c1` is higher in “48 h IGC50 (-log10 mol/L)” value: 2.83 for the first, 3.18 for the second.

Compared with `O=C/C(Cl)=C/c1ccccc1`, `C=Cc1ccc2ccccc2c1` is lower in “48 h IGC50 (-log10 mol/L)” value: 4.73 for the first, 4.24 for the second.

Compared with `N#CC(C#N)=Cc1ccco1`, `N#C/C=C/c1ccco1` is lower in “48 h IGC50 (-log10 mol/L)” value: 3.94 for the first, 2.69 for the second.

Compared with `CCc1ccc(-c2ccccc2)cc1`, `Oc1ccccc1Cc1ccccc1` is lower in “48 h IGC50 (-log10 mol/L)” value: 4.97 for the first, 4.31 for the second.

Going from `C#CC(O)CC` (centres undefined) to `CCC(C)CO` (centres undefined), the “48 h IGC50 (-log10 mol/L)” value rises from 1.82 to 2.05.

Compared with `Cc1ccc(Cl)c(O)c1`, `COc1cc(O)cc(Cl)c1` is higher in “48 h IGC50 (-log10 mol/L)” value: 3.54 for the first, 3.76 for the second.

Going from `CS(C)=O` to `CC#CCOC(C)=O`, the “48 h IGC50 (-log10 mol/L)” value rises from 0.548 to 2.12.

Compared with `O=C(O)c1cc(Br)cc(Br)c1`, `O=C(c1ccc(O)cc1O)c1ccc(O)cc1O` is higher in “48 h IGC50 (-log10 mol/L)” value: 3.46 for the first, 3.96 for the second.

`C=CCOC(=O)C=CC` and `CC=CC(=O)OCC(C)C` are within 0.2 log units of each other in “48 h IGC50 (-log10 mol/L)” value: 2.52 for the first, 2.66 for the second.

First: c1ccc2c(c1)ccc1cccnc12
Second: CCOC(=O)c1ccc(OC)cc1
The “48 h IGC50 (-log10 mol/L)” value of the first is higher: 4.31 for the first, 3.77 for the second.

Compared with `OCCCCCCBr`, `CCCCCCCCCCC(C)O` (centres undefined) is higher in “48 h IGC50 (-log10 mol/L)” value: 3.01 for the first, 4.66 for the second.

Compared with `C=CCCO`, `OCC(O)CBr` (centres undefined) is higher in “48 h IGC50 (-log10 mol/L)” value: 1.3 for the first, 1.79 for the second.

Compared with `C=CC(=O)OC(C)(C)C`, `CCC(N)CC` is lower in “48 h IGC50 (-log10 mol/L)” value: 3.27 for the first, 2.19 for the second.

First: Nc1c(Cl)cc([N+](=O)[O-])cc1[N+](=O)[O-]
Second: Fc1cc(F)c(F)nc1F
The “48 h IGC50 (-log10 mol/L)” value of the first is higher: 4.12 for the first, 2.39 for the second.

Source: EPA's aquatic toxicity sets
